The values that follow are results of earlier work, collected in patent US9920347B2, “Methods for producing virus particles with simplified glycosylation of surface proteins” (priority 2010, dated 2018).

The target in data set [1] is alpha-glucosidase amyloglucosidase (Aspergillus niger, UniProt P69328). Conditions: read-out: concentration giving 50% inhibition of amyloglucosidase.
A further data set deals with T1, Golgi mannosidase II (Homo sapiens, UniProt Q16706).
T1 sequence (Q16706 1-1144): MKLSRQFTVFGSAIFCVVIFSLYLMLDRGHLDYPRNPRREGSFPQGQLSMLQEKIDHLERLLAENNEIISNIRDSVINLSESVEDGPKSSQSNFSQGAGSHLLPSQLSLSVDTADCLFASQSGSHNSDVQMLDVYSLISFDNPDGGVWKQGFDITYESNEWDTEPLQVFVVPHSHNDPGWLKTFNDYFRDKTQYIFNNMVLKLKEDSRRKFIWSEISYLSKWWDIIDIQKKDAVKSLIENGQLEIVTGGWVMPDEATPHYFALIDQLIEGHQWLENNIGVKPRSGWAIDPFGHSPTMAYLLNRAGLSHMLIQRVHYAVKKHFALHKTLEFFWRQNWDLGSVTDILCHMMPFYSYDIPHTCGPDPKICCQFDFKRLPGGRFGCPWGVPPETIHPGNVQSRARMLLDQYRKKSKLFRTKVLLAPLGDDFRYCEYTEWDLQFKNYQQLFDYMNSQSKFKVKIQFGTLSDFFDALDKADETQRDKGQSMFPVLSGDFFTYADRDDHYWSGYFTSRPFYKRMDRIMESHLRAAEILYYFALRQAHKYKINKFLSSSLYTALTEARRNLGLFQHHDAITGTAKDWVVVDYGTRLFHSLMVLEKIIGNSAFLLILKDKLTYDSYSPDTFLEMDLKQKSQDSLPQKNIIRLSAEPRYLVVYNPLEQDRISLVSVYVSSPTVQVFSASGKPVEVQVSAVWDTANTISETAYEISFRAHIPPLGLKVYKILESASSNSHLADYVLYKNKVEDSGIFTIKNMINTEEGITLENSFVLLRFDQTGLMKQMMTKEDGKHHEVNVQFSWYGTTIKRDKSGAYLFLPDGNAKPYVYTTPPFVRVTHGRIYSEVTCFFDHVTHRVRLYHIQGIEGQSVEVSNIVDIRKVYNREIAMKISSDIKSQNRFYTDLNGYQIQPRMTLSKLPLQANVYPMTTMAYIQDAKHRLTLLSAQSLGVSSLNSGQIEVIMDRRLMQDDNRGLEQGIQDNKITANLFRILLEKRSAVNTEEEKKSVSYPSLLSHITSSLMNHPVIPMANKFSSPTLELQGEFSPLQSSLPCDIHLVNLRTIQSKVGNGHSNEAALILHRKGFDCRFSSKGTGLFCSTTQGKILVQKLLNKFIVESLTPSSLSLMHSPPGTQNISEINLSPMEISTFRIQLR

Data set [2] relates to rat epididymal α-mannosidase.
In data set [3] the test system is animal Golgi enzyme, mannosidase I.
A further data set relates to intact cells. To be noted: glycoproteins with Man7-9(GlcNAc)2 structures accumulate.

alpha-glucosidase amyloglucosidase, sequence (P69328 25-640): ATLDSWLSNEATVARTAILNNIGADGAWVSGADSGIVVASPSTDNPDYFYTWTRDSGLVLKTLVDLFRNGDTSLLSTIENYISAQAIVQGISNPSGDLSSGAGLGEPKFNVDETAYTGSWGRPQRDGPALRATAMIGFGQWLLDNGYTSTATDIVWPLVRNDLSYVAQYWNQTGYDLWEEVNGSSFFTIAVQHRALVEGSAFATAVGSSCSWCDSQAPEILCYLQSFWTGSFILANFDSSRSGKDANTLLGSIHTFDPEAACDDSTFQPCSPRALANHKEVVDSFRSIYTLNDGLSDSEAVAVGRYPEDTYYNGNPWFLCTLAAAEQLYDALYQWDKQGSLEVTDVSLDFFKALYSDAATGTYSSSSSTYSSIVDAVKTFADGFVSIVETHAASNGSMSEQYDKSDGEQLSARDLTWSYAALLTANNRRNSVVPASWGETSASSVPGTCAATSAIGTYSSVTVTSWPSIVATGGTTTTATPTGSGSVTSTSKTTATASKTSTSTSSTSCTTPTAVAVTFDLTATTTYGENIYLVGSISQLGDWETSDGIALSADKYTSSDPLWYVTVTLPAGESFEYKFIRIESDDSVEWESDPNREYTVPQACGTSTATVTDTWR

Consider `OC[C@@H]1[C@@H](O)[C@H](O)[C@H]2[C@@H](O)CCN21` [Australine], for which the IC50 in [1] is 5.8 µM. For the same molecule, the inhibition of beta-glucosidase result in the data set with beta-glucosidase is recorded as “did not inhibit”. Also, the inhibition of alpha-mannosidase result in the data set with alpha-mannosidase is “did not inhibit”. Moreover, the inhibition of beta-mannosidase result with beta-mannosidase is listed as “did not inhibit”. For the same molecule, the inhibition of alpha-galactosidase result in the data set on alpha-galactosidase is “did not inhibit”. The inhibition of beta-galactosidase entry in the data set on beta-galactosidase was “did not inhibit”.
As to `O[C@H]1[C@H]2[C@H](O)CCCN2C[C@H]1O` [Swainsonine], the “inhibition of Golgi mannosidase II” value on Golgi mannosidase II was “potent inhibitor”. Also, in the data set on mannosidase 1, the “effect on mannosidase 1” value was “no effect”.
On to `CS[C@@H]1[C@@H](N)[C@@H](O)[C@@H](O)[C@H]1O` [Mannostatin A], for which the “inhibition of rat epididymal α-mannosidase” value in data set [2] is listed as “potent inhibitor”.
`O[C@H]1[C@H](O)[C@@H](O)CN2CC[C@H](O)[C@H]12` [Castanospermine]: the “inhibition of alpha-glucosidase activities” value with alpha-glucosidase is recorded as “inhibits”. The “inhibition of dengue virus infection” value with dengue virus was “inhibits”.
`O=C1N[C@@H]2[C@@H](O)[C@@H](O)[C@H](O)[C@@H](CO)N2C1=O` [Kifunensine]: the “inhibition of mannosidase I” value in data set [3] is given as “inhibits”. Further, the “shift of N-linked oligosaccharides from complex chains to Man9(GlcNAc)2 structures” value in the data set with cultured mammalian cells (1 μg/ml or higher) was “complete shift”.
On to `OC[C@H]1NC[C@@H](O)[C@@H](O)[C@@H]1O` [Deoxymannojirimycin], for which the “inhibition of rat liver mammosidase I” value in the data set on rat liver mammosidase I is reported as “fairly potent inhibitor”. Further, the “effect on synthesis of complex types of N-linked oligosaccharides” value in the data set on intact cells is listed as “blocked the synthesis of complex types of N-linked oligosaccharides”. The “prevention of formation of complex chains” value in the data set with cultured mammalian cells (50 μg/ml) is “does not prevent the formation of all complex chains”.
